In publication PMC12705620 (Frontiers in Pharmacology, 2025):

Key:
[1] = test system: S. aureus LUH14616 (MRSA); test: Ex vivo human skin wound infection model; parameters: species or system Staphylococcus aureus; settings: 0.5% (v/v) in 70% ethanol, positive control, 4 h, p < 0.001
Description: Human skin from 3 donors was obtained via the Residual Tissue Biobank of the Red Cross Hospital (Beverwijk, Netherlands). The use of these coded, post-operative residual tissue samples was approved by patients through the informed opt-out-plus protocol of the Red Cross Hospital Skin ([Code-of-Conduct-for-Health-Research, 2022]) and processed for an ex vivo wound infection model as described ([Dijksteel et al., 2020]). The Wounded skin grafts were sectioned into approximately 1 cm^2 samples using a sterile scalpel and were decontaminated by immersion in 70% ethanol for 30 min, followed by three PBS washes. Samples were placed dermis-down and wound-side-up on stainless steel grids with central indentations, positioned in 12-well plates, and cultured at the air–liquid interface in DMEM at 37 °C and 5% CO2. To confine reagents to the wound area, a resin barrier (OpalDam; Ultradent) was applied to the wounded area and polymerized using a hand-held UV light (Valo X) for 10 s. The wounds were then topically infected with 10 µL of S. aureus LUH14616 suspension of 1 × 10^7 CFU/mL (final dose: 1 × 10^5 CFU/graft) in PBS for 1 h, followed by topical application of 10 µL of peptide solution for 4 h. Chlorhexidine (0.5% (v/v) in 70% ethanol; Entick B.V.) and PBS were used as positive and negative controls, respectively. After treatment, tissue samples were transferred to polypropylene vials containing 1 mL PBS supplemented with 0.025% (v/v) SPS and a 7 mm stainless steel bead. Homogenization was performed using a MagnaLyser System (Roche) with three 30-s cycles at 7,000 rpm, with 30 s of cooling on ice between cycles. Homogenates were 10-fold serially diluted in PBS, and 100 µL aliquots were plated on BA plates. CFUs were enumerated after overnight incubation at 37 °C.

[2] = test system: Staphylococcus aureus JAR060131; assay type: cell-based; settings: JAR060131, 18 h
Procedure: Bactericidal activity was assessed as previously described ([Breij et al., 2018]). Briefly, mid-logarithmic phase bacterial cultures were diluted in RPMI to 1 × 10^7 CFU/mL. For fungicidal assays, fungal cultures were prepared in RPMI supplemented with 1% glucose (Merck) and diluted to 2–5 × 10^5 CFU/mL. For each condition, 10 µL of the suspension was added to 90 µL of peptide-containing RPMI or RPMI supplemented with 50% (v/v) pooled human plasma (hereafter referred to as 50% plasma; final bacterial concentration 1 × 10^6 CFU/mL, final fungal concentration 2–5 × 10^4 CFU/mL. Human plasma from four healthy volunteers (Sanquin, Netherlands) was pooled, and stored at −20 °C until use. Peptides were tested similarly for fungicidal activity, after 18 h of incubation at 37 °C with shaking (120 rpm) under humidified conditions, bacterial and fungal survival was determined by plating 10 µL aliquots onto BA plates. Assays were performed in duplicate in round-bottom polypropylene microtiter plates (Costar) and repeated independently three times. Untreated controls included bacteria exposed to RPMI alone or RPMI with 50% plasma. Bactericidal and fungicidal activity was expressed as the lethal concentration 99.9% (LC99.9), defined as the lowest peptide concentration causing ≥99.9% reduction in numbers of CFU compared to the initial inoculum.

HaCaT keratinocytes = test: In vitro scratch wound assay; assay type: cell-based, human; settings: 1 µM peptide (TGF-β 20 ng/mL)
Procedure: Cell migration following injury was assessed using an in vitro scratch assay with the IncuCyte wound maker tool (Sartorius). HaCaT keratinocytes were seeded in 96-well ImageLock plates (Sartorius) at 3 × 10^5 cells/well (100 µL) in DMEM supplemented with 10% FBS and incubated at 37 °C, 5% CO2 for 48 h, with medium change at 24 h, until confluence. Uniform scratches were introduced using the wound maker tool according to the manufacturer’s instructions. After wounding, wells were washed twice with 100 µL PBS to remove cell debris. Cells were then treated with 1 µM peptides in serum-free DMEM, to focus specifically on cell migration from the wound edges. The absence of serum minimizes interference with peptide activity. Transforming growth factor-beta (TGF-β; human; 20 ng/mL; Sigma-Aldrich) and 5% dimethyl sulfoxide (DMSO; Sigma-Aldrich) were used as positive and negative controls, respectively. Additional controls included serum-free DMEM (no-treatment control) and 50% (v/v) acetonitrile in Milli-Q water as solvent control. Wound closure was monitored using the IncuCyte S3 live-cell imaging system (Sartorius) with bright-field microscopy. Images were captured every 6 h for up to 60 h. Image analysis was performed using ImageJ software (version 1.53t, NIH, USA) with the “Wound Healing” plugin, as described by Suarez Arnedo et al. ([Suarez-Arnedo et al., 2020]). Quantitative parameters included wound width (µm), percent wound closure, and migration rate (µm/hour).

## [H]/N=C(\N/C(=N/[H])NCCCCCCNC(=N)NC(=N)Nc1ccc(Cl)cc1)Nc1ccc(Cl)cc1 [Chlorhexidine, reference compound]
[1]
  Reduction of bacterial burden (CFU counts): significantly reduced bacterial burden

## N=C(N)NCCC[C@H](NC(=O)[C@H](Cc1c[nH]c2ccccc12)NC(=O)[C@H](CCC(N)=O)NC(=O)[C@H](Cc1c[nH]c2ccccc12)NC(=O)[C@H](CCCNC(=N)N)NC(=O)[C@@H](N)CCCNC(=N)N)C(=O)NCC(CNC(=O)[C@H](CCCNC(=N)N)NC(=O)[C@H](Cc1c[nH]c2ccccc12)NC(=O)[C@H](CCC(N)=O)NC(=O)[C@H](Cc1c[nH]c2ccccc12)NC(=O)[C@H](CCCNC(=N)N)NC(=O)[C@@H](N)CCCNC(=N)N)OCC(=O)NCCCCCC(=O)N[C@@H](CSSC[C@H](NC(=O)CCCCCNC(=O)COC(CNC(=O)[C@H](CCCNC(=N)N)NC(=O)[C@H](Cc1c[nH]c2ccccc12)NC(=O)[C@H](CCC(N)=O)NC(=O)[C@H](Cc1c[nH]c2ccccc12)NC(=O)[C@H](CCCNC(=N)N)NC(=O)[C@@H](N)CCCNC(=N)N)CNC(=O)[C@H](CCCNC(=N)N)NC(=O)[C@H](Cc1c[nH]c2ccccc12)NC(=O)[C@H](CCC(N)=O)NC(=O)[C@H](Cc1c[nH]c2ccccc12)NC(=O)[C@H](CCCNC(=N)N)NC(=O)[C@@H](N)CCCNC(=N)N)C(N)=O)C(N)=O (some centres unmarked) [LBT-2]
[2]
  LC99.9: 0.47 µM

## TGF-β
HaCaT keratinocytes; 60 h (legend: 64 h), versus no treatment
  Percentage of wound closure: near-complete wound closure
HaCaT keratinocytes; serum-free DMEM, versus untreated control
  Wound width reduction: highest wound width reduction
HaCaT keratinocytes; versus no treatment
  Rate of cell migration: faster wound closure
